Assay results from patent US11701389B2, “Methods of preserving mesenchymal stem cells” (Emory University, priority 2016, dated 2023).
Where a SMILES comes first, the peptide text is derived from it. The star is where a group is joined. Cbz = O=C(OCc1ccccc1)*; CH2F = FC*

Tested on: T cell proliferation in SEB activated PBMCs
Experiment: MSC and PBMC coculture, Ki67 T cell proliferation assay
Assay type: cell-based, human
Conditions: for inhibition of T cell proliferation by frozen-thawed MSCs pretreated with inhibitor prior to cryopreservation: Z-VAD-FMK 50 uM or 3-Methyl Adenine 1 mM pretreatment, FIG. 5A, 5B

| Compound | effect of IDO blocking on suppression of T-cell proliferation by IFNgamma Cryo MSCs (1 mM added to coculture, FIG. 5F) | inhibition of T cell proliferation by frozen-thawed MSCs pretreated with inhibitor prior to cryopreservation |
| --- | --- | --- |
| Cn1cc(C[C@H](N)C(=O)O)c2ccccc21 (racemic) [1-Methyl Tryptophan] | negates the suppressive effect | – |
| Cn1cnc(N)c2ncnc1-2 [3-Methyl Adenine] | – | defective in inhibiting T cell proliferation |
| COC(=O)C[C@H](NC(=O)[C@H](C)NC(=O)[C@@H](NC(=O)OCc1ccccc1)C(C)C)C(=O)CF [Z-VAD-FMK] (Cbz-Val-Ala-Asp(OMe)-CH2F) | – | defective in inhibiting T cell proliferation |
